Measured values taken from PMC7039932, “Development of Relaxin-3 Agonists and Antagonists Based on Grafted Disulfide-Stabilized Scaffolds” (Frontiers in Chemistry, 2020).
Where a SMILES comes first, the peptide text is derived from it. Bridges are numbered along the chain shown (N, C = ends). Where no end group is shown, it is not given here.

Experiments:
[1] = In vitro serum stability; format: in vitro ADME, human; settings: for half-life at 2.5 µg/mL: human male pooled serum, 570 μl spiked with 30 μl peptide stock (0.05 μg/μl in H2O), quenched with 0.1 M ammonium acetate pH 3, SPE, LC-MS MRM, one phase decay, at least three replicates, read-out: Half-life in serum (T1/2) (converted)
Procedure: The in vitro serum stability was determined by peptide spiking, as previously described (Hossain et al., [2015]). Briefly, 570 μl human male pooled serum was spiked with 30 μl peptide stock solution (0.05 μg/μl in H2O). 100 μl samples were taken out at different time points and quenched with 900 μl ammonium acetate (0.1 M, pH 3). Samples were left on ice for 30 min before being extracted using solid phase extraction cartridges (Oasis HLB 3cc, Waters). Eluted samples were then lyophilized and reconstituted in 1% formic acid. The amount of intact peptide is reported relative to the amount of peptide available at timepoint 0 hr. Quantification was carried out using multiple reaction monitoring on a triple-quad LC-MS (API2000, AB Sciex) and the data analyzed using one phase decay in Prism 7.

[2] = biological target: T1, RXFP3 (Homo sapiens, UniProt Q9NSD7); assay: Inhibition of forskolin-induced cAMP accumulation, pCRE-β-galactosidase reporter, CHO-K1 cells stably expressing RXFP3; format: cell-based; settings: CHO-K1-RXFP3 cells with pCRE-β-galactosidase reporter; 5 μM forskolin; mean ± SEM, number in parentheses = independent experiments in triplicate
T1 construct: expressed in transfected cells; host or cells: CHO-K1 cells stably expressing RXFP3
T1 sequence (Q9NSD7 1-469): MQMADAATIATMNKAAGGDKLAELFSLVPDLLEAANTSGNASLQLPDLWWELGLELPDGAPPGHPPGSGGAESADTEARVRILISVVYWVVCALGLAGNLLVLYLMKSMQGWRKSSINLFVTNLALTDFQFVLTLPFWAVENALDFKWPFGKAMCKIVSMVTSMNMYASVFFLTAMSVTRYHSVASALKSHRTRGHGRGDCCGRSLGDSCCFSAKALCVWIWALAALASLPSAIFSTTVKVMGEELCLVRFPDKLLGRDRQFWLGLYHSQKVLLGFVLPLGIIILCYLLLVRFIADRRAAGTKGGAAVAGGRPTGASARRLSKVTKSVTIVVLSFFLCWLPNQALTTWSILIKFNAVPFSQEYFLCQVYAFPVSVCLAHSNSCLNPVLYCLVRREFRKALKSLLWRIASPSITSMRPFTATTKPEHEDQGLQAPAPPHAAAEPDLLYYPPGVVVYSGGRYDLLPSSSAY
Procedure: The affinity and activity of the grafted peptides were determined as previously described (Haugaard-Kedström et al., [2015]). Briefly, for competition binding studies CHO-K1 cells stably expressing RXFP3 were incubated with 5 nM Eu-DTPA-R3 B1-22R and increasing concentrations of peptide analogs. Unlabeled R3 B1-22R was used as reference compound. The europium was detected by the addition of enhancement solution and fluorescence recorded using an excitation of 340 nm and emission reading at 614 nm. For agonists the ability of analogs to inhibit cAMP accumulation were tested in CHO-K1 cells stably expressing RXFP3 transfected with a pCRE-β-galactosidase reporter plasmid. Cells were stimulated with 5 μM forskolin and incubated with increasing concentrations of relaxin-3 analogs as previously described (Shabanpoor et al., [2012]). […] Data are expressed as mean ± SEM and analyzed using Prism 8 (GraphPad).
The binding affinity of the grafted peptides were determined using CHO cells stably expressing RXFP3 by measuring increasing concentrations of the grafted peptides' ability to compete for the binding site with europium labeled R3 B1-22R (Haugaard-Kedström et al., [2015]). Activation was measured by assessing the ability of the analogs to inhibit cAMP accumulation induced by forskolin in a reporter assay, as RXFP3 couples to an inhibitory G-protein.

[3] = biological target: T2, RXFP3 (Homo sapiens, UniProt Q9NSD7); assay: competition binding with Eu-R3 B1-22R on CHO-K1 cells
T2 chain: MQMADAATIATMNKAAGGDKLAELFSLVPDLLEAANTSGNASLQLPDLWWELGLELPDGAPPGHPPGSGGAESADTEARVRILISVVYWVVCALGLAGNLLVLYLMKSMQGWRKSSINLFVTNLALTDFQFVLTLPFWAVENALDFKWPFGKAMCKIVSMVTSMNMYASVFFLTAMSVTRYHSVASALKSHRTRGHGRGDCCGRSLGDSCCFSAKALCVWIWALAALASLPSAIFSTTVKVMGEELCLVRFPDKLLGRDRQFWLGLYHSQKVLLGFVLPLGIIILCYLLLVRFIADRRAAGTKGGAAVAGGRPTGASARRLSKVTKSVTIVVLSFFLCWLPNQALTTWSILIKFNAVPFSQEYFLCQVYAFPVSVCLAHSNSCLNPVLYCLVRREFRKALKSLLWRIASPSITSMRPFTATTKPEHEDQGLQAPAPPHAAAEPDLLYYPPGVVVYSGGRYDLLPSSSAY

Molecule `CC[C@H](C)[C@H](NC(=O)[C@H](Cc1ccccc1)NC(=O)[C@H](CCC(=O)O)NC(=O)[C@H](CCCNC(=N)N)NC(=O)CNC(=O)[C@H](CS)NC(=O)[C@H](CC(C)C)NC(=O)[C@H](CCCNC(=N)N)NC(=O)[C@@H](NC(=O)CNC(=O)[C@H](Cc1ccc(O)cc1)NC(=O)[C@@H]1CCCN1C(=O)[C@H](C)NC(=O)[C@H](C)NC(=O)[C@@H](N)CCCNC(=N)N)C(C)C)C(=O)N[C@@H](CCCNC(=N)N)C(=O)N[C@@H](C)C(=O)N[C@H](C(=O)N[C@H](C(=O)N[C@@H](Cc1ccccc1)C(=O)N[C@H](C(=O)N[C@@H](CS)C(=O)NCC(=O)NCC(=O)N[C@@H](CO)C(=O)N[C@@H](CCCNC(=N)N)C(=O)N[C@@H](Cc1c[nH]c2ccccc12)C(=O)O)[C@@H](C)O)[C@@H](C)CC)C(C)C` [Analog 2, reference compound] has a half-life at 2.5 µg/mL [1] of 0.0517 h.

In the case of `CC[C@H](C)[C@@H]1NC(=O)[C@H](C)NC(=O)[C@@H]2CSSC[C@H](N)C(=O)N[C@@H](CC(N)=O)C(=O)N[C@@H](CSSC[C@@H](C(=O)N[C@H](C(=O)N[C@H](C(=O)N[C@@H](Cc3ccccc3)C(=O)N[C@H](C(=O)N[C@@H](CO)C(=O)NCC(=O)NCC(=O)N[C@@H](CO)C(=O)N[C@@H](CCCNC(=N)N)C(=O)N[C@@H](Cc3c[nH]c4ccccc34)C(=O)O)[C@@H](C)O)[C@@H](C)CC)C(C)C)NC(=O)[C@H](CCCNC(=N)N)NC1=O)C(=O)N[C@@H](CCCCN)C(=O)N[C@@H](C)C(=O)N1CCC[C@H]1C(=O)N[C@@H](CCC(=O)O)C(=O)N[C@@H]([C@@H](C)O)C(=O)N[C@@H](C)C(=O)N[C@@H](CCCNC(=N)N)C(=O)N2` [Analog 3] (H-CNCKAPETARCAIRCVIFTSGGSRW-OH; disulfide 1-11, 3-15), the half-life at 2.5 µg/mL [1] is reported as 12.8 h and the “Fold improvement in serum stability versus linear counterpart” value ([1]; human serum T1/2 of grafted peptide relative to linear R3 B1-27 or R3 B1-22R) is reported as 250 fold.

For `CC[C@H](C)[C@@H]1NC(=O)[C@H](C)NC(=O)[C@@H]2CSSC[C@H](N)C(=O)N[C@@H](CC(N)=O)C(=O)N[C@@H](CSSC[C@@H](C(=O)N[C@H](C(=O)N[C@H](C(=O)N[C@@H](Cc3ccccc3)C(=O)N[C@H](C(=O)N[C@@H](CO)C(=O)N[C@@H](CCCNC(=N)N)C(N)=O)[C@@H](C)O)[C@@H](C)CC)C(C)C)NC(=O)[C@H](CCCNC(=N)N)NC1=O)C(=O)N[C@@H](CCCCN)C(=O)N[C@@H](C)C(=O)N1CCC[C@H]1C(=O)N[C@@H](CCC(=O)O)C(=O)N[C@@H]([C@@H](C)O)C(=O)N[C@@H](C)C(=O)N[C@@H](CCCNC(=N)N)C(=O)N2` [Analog 9] (H-CNCKAPETARCAIRCVIFTSR-NH2; disulfide 1-11, 3-15), the “cAMP activity pEC50 ± SEM” value [2] was “No activity” and the half-life at 2.5 µg/mL [1] was 6.6 h.

“RAAPYGVRLSGREFIRAVIFTSR-NH2 [Analog 8, reference compound]” showed a half-life at 2.5 µg/mL [1] of 0.0667 h.

For RAAPYGVRLSGREFIRAVIFTSR-NH2 [Analog 8], the “cAMP activity pEC50 ± SEM” value [2] was “No activity”.

B1: relaxin-3 (R3 acid, analog 1) (protein)
chain 1: RAAPYGVRLCGREFIRAVIFTCGGSRW
chain 2: DVLAGLSSSCCKWGCSKSEISSLC
Work on B1 yielded a Ki [3] of 20.4 nM.

For MARYMLLLLLAVWVLTGELWPGAEARA [relaxin-3 B-chain (R3 B1-27, analog 2) B-chain 1-27], the Ki [3] was 1230 nM.
